Calls of active or inactive are those of the source. No cut-off for these calls is given here.
How the values were obtained:
HCT-116 = assay: Cytotoxicity against human HCT116 cells at 50 uM; format: functional, cell-based
PC-12 = assay: Stimulation of NGF-induced neurite outgrowth in rat PC12 cells at 20 uM incubated for 48 hrs by phase contrast microscopy; format: functional, cell-based
[1] = Cytotoxicity against rat PC12 cells assessed as reduction in cell viability up to 50 uM by MTT assay; format: cell-based; details: pc-12
[2] = Antioxidant activity assessed as DPPH radical scavenging activity at 50 uM; format: physicochemical
[3] = Cytotoxicity against NF1 and p53 deficient mouse glioma cells assessed as growth inhibition at 2 ug/ml after 2 days; format: functional; details: Glioma cell, 48 h
[4] = Cytotoxicity against rat PC12 cells assessed as induction of morphological changes at 20 uM after 48 hrs by phase contrast microscopy in absence of NGF; format: cell-based; details: pc-12, 48 h
[5] = molecular target: T1, Peroxisome proliferator-activated receptor (Homo sapiens, UniProt P37231+Q07869+Q03181); assay: Activation of PPAR (unknown origin) transactivation expressed in human HepG2 cells assessed as increase in transcriptional activity after 20 hrs by PPRE-luciferase reporter gene assay; format: cell-based
T1 sequence (P37231 whole entry): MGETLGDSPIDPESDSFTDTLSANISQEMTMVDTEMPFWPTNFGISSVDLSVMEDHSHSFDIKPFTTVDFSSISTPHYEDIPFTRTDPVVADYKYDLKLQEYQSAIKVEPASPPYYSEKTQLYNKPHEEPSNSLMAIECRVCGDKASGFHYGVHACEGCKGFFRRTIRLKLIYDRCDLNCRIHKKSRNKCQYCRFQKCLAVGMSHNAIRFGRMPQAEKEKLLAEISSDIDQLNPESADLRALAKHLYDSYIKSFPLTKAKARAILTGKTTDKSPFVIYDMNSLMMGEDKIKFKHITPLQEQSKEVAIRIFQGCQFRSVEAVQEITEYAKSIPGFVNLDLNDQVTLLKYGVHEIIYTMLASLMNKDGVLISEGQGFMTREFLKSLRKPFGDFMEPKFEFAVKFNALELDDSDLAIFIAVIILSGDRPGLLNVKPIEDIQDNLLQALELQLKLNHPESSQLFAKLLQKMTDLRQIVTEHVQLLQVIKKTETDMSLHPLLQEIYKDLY
T1 sequence (Q07869 whole entry): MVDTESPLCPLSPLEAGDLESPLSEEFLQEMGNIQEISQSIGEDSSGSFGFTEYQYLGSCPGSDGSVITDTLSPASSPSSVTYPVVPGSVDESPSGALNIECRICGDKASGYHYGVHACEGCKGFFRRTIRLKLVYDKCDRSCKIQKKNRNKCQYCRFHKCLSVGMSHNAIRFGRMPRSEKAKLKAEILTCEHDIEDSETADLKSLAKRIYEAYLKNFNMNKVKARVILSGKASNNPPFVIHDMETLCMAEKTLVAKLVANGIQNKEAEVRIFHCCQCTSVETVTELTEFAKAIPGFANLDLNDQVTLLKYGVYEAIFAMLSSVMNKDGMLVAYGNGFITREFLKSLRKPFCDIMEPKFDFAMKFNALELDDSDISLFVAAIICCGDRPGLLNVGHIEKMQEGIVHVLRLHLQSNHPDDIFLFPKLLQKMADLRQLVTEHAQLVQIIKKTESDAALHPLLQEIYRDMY
T1 sequence (Q03181 whole entry): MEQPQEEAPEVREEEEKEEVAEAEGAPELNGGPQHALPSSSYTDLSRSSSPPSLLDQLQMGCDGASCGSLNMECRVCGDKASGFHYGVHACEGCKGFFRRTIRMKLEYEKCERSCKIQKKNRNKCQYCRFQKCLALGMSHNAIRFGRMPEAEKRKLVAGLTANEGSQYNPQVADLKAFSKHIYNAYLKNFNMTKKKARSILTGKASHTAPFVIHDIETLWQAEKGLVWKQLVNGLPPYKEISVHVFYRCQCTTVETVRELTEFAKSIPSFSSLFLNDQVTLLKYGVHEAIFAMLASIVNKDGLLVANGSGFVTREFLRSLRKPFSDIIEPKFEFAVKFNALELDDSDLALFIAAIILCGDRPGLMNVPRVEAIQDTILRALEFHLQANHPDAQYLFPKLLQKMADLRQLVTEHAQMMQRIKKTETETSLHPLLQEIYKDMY

Activity [2] | EC50 [5] [µM] | Compound | Activity (HCT-116) | Activity (PC-12) | Activity [1] | inhibition at 2 µg/mL [3] [%] | Activity [4]
Not Active |  | CC(O)/C=C/C=C/C(O)CC/C=C/C(=O)NCC(C)(C)O (centres undefined) | inactive | Active | Non-toxic | 41 | 
Not Active |  | C[C@H](O)[C@H](O)/C=C/C=C\CC/C=C/C(=O)NCC(C)(C)O | inactive | Active | Non-toxic | 31 | Non-toxic
Not Active |  | CCOC(C)/C=C/C=C/C(O)CC/C=C/C(=O)NCC(C)(C)O (centres undefined) | inactive | Active | Non-toxic |  | 
 |  | CCOC(/C=C/C=C/C(C)O)CC/C=C/C(=O)NCC(C)(C)O (centres undefined) |  |  | Non-toxic |  | 
Not Active | 19.1 | CC(=O)/C=C/C=C/C(O)CC/C=C/C(=O)NCC(C)(C)O (centres undefined) | inactive | Active | Non-toxic | 52 | 
Not Active | 12 | C[C@H](O)[C@@H](O)/C=C/C=C/CC/C=C/C(=O)NCC(C)(C)O | inactive | Active | Non-toxic | 56 | Non-toxic
 |  | CC(O)/C=C/C=C/C(=O)CC/C=C/C(=O)NCC(C)(C)O (centres undefined) |  |  | Non-toxic |  | 
Not Active |  | CC(O)/C=C/C=C/C(=O)C/C=C/C(=O)NCC(C)(C)O (centres undefined) | inactive | Active | Non-toxic |  | 

Reference: ChEMBL document CHEMBL3751675, “Characterization of isobutylhydroxyamides with NGF-potentiating activity from Zanthoxylum bungeanum” (Bioorg Med Chem Lett, 2016)
